Earlier results in patent US8586092B2 (Xi'an Libang Pharmaceutical Technology Co., Ltd., priority 2009, dated 2013).
One block for each molecule: values may come before it.

Assays:
mouse = conditions: in vivo, sc
rat = conditions: orally administered to rat

aqueous solubility: around 10 ng/ml
SMILES: C[C@]12CC[C@@H]3c4ccc(O)cc4C[C@@H](CCCCCCCCC[S+]([O-])CCCC(F)(F)C(F)(F)F)[C@H]3[C@@H]1CC[C@@H]2O (stereo partly drawn) [Fulvestrant, 7-alpha-[9-(4,4,5,5,5-pentafluoropentylsulphinyl)nonyl]estra-1,3,5-(10)-triene-3,17-beta-diol]

SMILES: CCO [ethanol]
LD50 (mouse): 8285 mg/kg

SMILES: O=C(OCc1ccccc1)c1ccccc1 [Benzyl benzoate]
LD50 (rat): 500 mg/kg
